What was measured:
κ opioid receptor = biological target: T1, κ opioid receptor (Homo sapiens, UniProt P41145); experiment: κ-opioid receptor [35S]GTPγS functional assay; assay type: biochemical
T1 construct: expressed in transfected cells; host or cells: HEK-293 (inferred from the in-house κ membrane preparation)
Method: Functional [^35S]GTPγS binding assays were conducted as follows. κ opioid receptor membrane solution was prepared by sequentially adding final concentrations of 0.026 μg/μl κ membrane protein (in-house), 10 μg/mL saponin, 3 μM GDP and 0.20 nM [^35S]GTPγS to binding buffer (100 mM NaCl, 10 mM MgCl2, 20 mM HEPES, pH 7.4) on ice. The prepared membrane solution (190 μl/well) was transferred to 96-shallow well polypropylene plates containing 10 μl of 20× concentrated stock solutions of agonist prepared in DMSO. Plates were incubated for 30 min at a temperature of about 25° C. with shaking. Reactions were terminated by rapid filtration onto 96-well Unifilter GF/B filter plates (Perkin Elmer, Shelton, Conn.) using a 96-well tissue harvester (Packard) and followed by three filtration washes with 200 μl ice-cold binding buffer (10 mM NaH2PO4, 10 mM Na2HPO4, pH 7.4). Filter plates were subsequently dried at 50° C. for 2-3 hours. Fifty μ1/well scintillation cocktail (Perkin Elmer, Shelton, Conn.) was added and plates were counted in a Packard Top-Count for 1 min/well.
κ GTP EC50 is the concentration of a compound providing 50% of the maximal response for the compound at a κ receptor.
κ GTP Emax (%) is the maximal effect elicited by a compound relative to the effect elicited by U69,593.

μ-opioid receptor = biological target: T2, μ-opioid receptor (Homo sapiens, UniProt P35372); experiment: μ-opioid receptor [35S]GTPγS functional assay; assay type: biochemical; details: for Emax: maximal effect relative to DAMGO
T2 construct: purchased Perkin Elmer, Shelton, Conn
T2 sequence (P35372 whole entry, species assumed): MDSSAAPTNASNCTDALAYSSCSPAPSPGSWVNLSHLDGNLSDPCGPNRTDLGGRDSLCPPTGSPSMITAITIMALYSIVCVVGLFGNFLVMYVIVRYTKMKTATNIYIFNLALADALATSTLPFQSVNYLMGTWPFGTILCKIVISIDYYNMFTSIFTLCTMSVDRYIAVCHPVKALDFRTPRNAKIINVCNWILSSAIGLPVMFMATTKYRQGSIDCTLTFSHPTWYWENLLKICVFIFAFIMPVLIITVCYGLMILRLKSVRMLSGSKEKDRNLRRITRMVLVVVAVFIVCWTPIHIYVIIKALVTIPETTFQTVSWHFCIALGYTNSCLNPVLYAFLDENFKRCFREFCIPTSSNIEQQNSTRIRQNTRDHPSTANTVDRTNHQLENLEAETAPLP
Method: [^35S]GTPγS functional assays were conducted using freshly thawed μ-receptor membranes (Perkin Elmer, Shelton, Conn.). Assay reactions were prepared by sequentially adding the following reagents to binding buffer (100 mM NaCl, 10 mM MgCl2, 20 mM HEPES, pH 7.4) on ice (final concentrations indicated): membrane protein (0.026 mg/mL), saponin ([…]), GDP ([…]) and [^35S]GTPγS (0.20 nM; Perkin Elmer, Shelton, Conn.). The prepared membrane solution (190 μl/well) was transferred to 96-shallow well polypropylene plates containing 10 μl of 20× concentrated stock solutions of the agonist [D-Ala^2, N-methyl-Phe^4 Gly-ol^5]-enkephalin (DAMGO) prepared in dimethyl sulfoxide (DMSO). Plates were incubated for 30 min at about 25° C. with shaking. Reactions were terminated by rapid filtration onto 96-well Unifilter GF/B filter plates (Perkin Elmer, Shelton, Conn.) using a 96-well tissue harvester (Perkin Elmer, Shelton, Conn.) followed by three filtration washes with 200 μl of ice-cold wash buffer (10 mM NaH2PO4, 10 mM Na2HPO4, pH 7.4). Filter plates were subsequently dried at 50° C. for 2-3 hours. BetaScint scintillation cocktail (Perkin Elmer, Shelton, Conn.) was added (50 μl/well) and plates were counted using a Packard Top-Count for 1 min/well. Data were analyzed using the sigmoidal dose-response curve fitting functions in GraphPad PRISM v. 3.0, or an in-house function for non-linear, sigmoidal dose-response curve-fitting.
μ GTP EC50 is the concentration of a compound providing 50% of the maximal response for the compound at a μ-opioid receptor.
μ GTP Emax (%) is the maximal effect elicited by a compound relative to the effect elicited by DAMGO, a standard agonist. Generally, the μ GTP Emax (%) value measures the efficacy of a compound to treat or prevent pain or other Conditions.

[1] = biological target: T3, human kappa opioid receptor (κ) (Homo sapiens, UniProt P41145); experiment: κ-opioid receptor radioligand ([3H]-U69,593) dose displacement binding assay
T3 construct: expressed in transfected cells; host or cells: HEK-293
T3 sequence (P41145 whole entry): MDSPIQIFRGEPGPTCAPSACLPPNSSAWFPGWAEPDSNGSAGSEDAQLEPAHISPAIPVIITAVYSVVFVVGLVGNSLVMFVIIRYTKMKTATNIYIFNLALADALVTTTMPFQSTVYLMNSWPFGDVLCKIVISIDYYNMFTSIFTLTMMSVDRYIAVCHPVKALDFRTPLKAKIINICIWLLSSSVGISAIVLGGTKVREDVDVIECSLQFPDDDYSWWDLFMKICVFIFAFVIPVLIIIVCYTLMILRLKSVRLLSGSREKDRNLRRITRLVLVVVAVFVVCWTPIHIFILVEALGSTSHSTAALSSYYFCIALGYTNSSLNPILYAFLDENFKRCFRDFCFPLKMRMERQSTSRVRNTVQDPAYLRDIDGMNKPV
Method: Membranes from recombinant HEK-293 cells expressing the human kappa opioid receptor (κ) (cloned in house) were prepared by lysing cells in ice cold hypotonic buffer (2.5 mM MgCl2, 50 mM HEPES, pH 7.4) (10 mL/10 cm dish) followed by homogenization with a tissue grinder/Teflon pestle. Membranes were collected by centrifugation at 30,000×g for 15 min at 4° C. and pellets were resuspended in hypotonic buffer to a final concentration of 1-3 mg/mL. Protein concentrations were determined using the BioRad protein assay reagent with bovine serum albumen as standard. Aliquots of κ receptor membranes were stored at −80° C.
Radioligand dose displacement assays used 0.4 nM [^3H]-U69,593 (GE Healthcare, Piscataway, N.J.; 40 Ci/mmole) with 15 μg membrane protein (recombinant κ opioid receptor expressed in HEK 293 cells; in-house prep) in a final volume of 200 μl binding buffer (5% DMSO, 50 mM Trizma base, pH 7.4). Non-specific binding was determined in the presence of 10 μM unlabeled naloxone or U69,593. All reactions were performed in 96-well polypropylene plates for 1 hour at a temperature of about 25° C. […] Fifty μl/well scintillation cocktail (Perkin Elmer, Shelton, Conn.) was added and plates were counted in a Packard Top-Count for 1 min/well.

T1 sequence (P41145 whole entry): as above

SMILES | EC50 (κ opioid receptor) | Emax (κ opioid receptor; maximal effect relative to U69,593) | EC50 (μ-opioid receptor) | Emax (μ-opioid receptor) | Ki [1]
CCN1C(=O)N(CC)[C@]2(CC[C@H]3[C@H]4Cc5ccc(O)cc5[C@@]3(CCN4C)C2)C1=O [Compound 21, (4S,4b′S,8a′R,9′R)-1,3-diethyl-3′-hydroxy-11′-methyl-8′,8a′,9′,10′-tetrahydro-5′H,7′H-spiro[imidazolidine-4,6′-[9,4b](epiminoethano)phenanthrene]-2,5-dione] | 221 ± 22.6 nM | 56.7 ± 3.66% | 54.7 ± 7.76 nM | 24.7 ± 2.46% | 10.5 ± 1.11 nM
CCN1C(=O)N(CC)[C@]2(CC[C@@]3(O)[C@H]4Cc5ccc(C#N)cc5[C@@]3(CCN4C)C2)C1=O [Compound 32, (4S,4b′R,8a′S,9′R)-1,3-diethyl-8a′-hydroxy-11′-methyl-2,5-dioxo-8′,8a′,9′,10′-tetrahydro-5′H,7′H-spiro[imidazolidine-4,6′-[9,4b](epiminoethano)phenanthrene]-3′-carbonitrile] | – | – | > 20000 nM | 16.3 ± 1.76% | –
CCN1C(=O)N(CC)[C@]2(CC[C@@]3(O)[C@H]4Cc5ccc(C(N)=O)cc5[C@@]3(CCN4C)C2)C1=O [Compound 33, (4S,4b′R,8a′S,9′R)-1,3-diethyl-8a′-hydroxy-11′-methyl-2,5-dioxo-8′,8a′,9′,10′-tetrahydro-5′H,7′H-spiro[imidazolidine-4,6′-[9,4b](epiminoethano)phenanthrene]-3′-carboxamide] | – | – | 974 ± 117 nM | 39.3 ± 1.78% | –
CCN1C(=O)N(CC)[C@]2(CC[C@@]3(O)[C@H]4Cc5ccc(/C(N)=N\O)cc5[C@@]3(CCN4C)C2)C1=O [Compound 34, (4S,4b′R,8a′S,9′R,E)-1,3-diethyl-N′,8a′-dihydroxy-11′-methyl-2,5-dioxo-8′,8a′,9′,10′-tetrahydro-5′H,7′H-spiro[imidazolidine-4,6′-[9,4b](epiminoethano)phenanthrene]-3′-carboximidamide] | – | – | 17200 ± 1200 nM | 29.7 ± 1.18% | –
